The values below come from US9439899B2, “Cancer therapy using a combination of HSP90 inhibitors with topoisomerase I inhibitors” (Synta Pharmaceuticals Corp., priority 2011, dated 2016).

Each structure is given as a SMILES string.

This experiment concerns HCT-116 colorectal cancer cells. Kind of experiment: Cell viability (alamarBlue) assay, single agents and combinations, in HCT-116 colorectal cancer cells. Type of experiment: cell-based. The conditions noted are these: Homo sapiens; HCT-116 cells exposed to drug for 72 hr; 1.5-fold serial dilution; four parameter logistic fit; read-out: half maximal inhibitory concentration (IC50), cell viability. Here is the method: Human HCT-116 colorectal cancer cells (CRC) were purchased from the American Type Culture Collection (Manassas, Va.) and grown in McCoy's 5a media (Sigma), following ATCC recommendations, in the presence of fetal bovine serum (10%), 2 mM L-glutamine and antibiotics (100 IU/ml penicillin and 100 μg/ml streptomycin, Sigma). Cells were maintained at 37° C., 5% CO2 atmosphere.
Cell viability was measured using the alamarBlue assay (Invitrogen). In brief, cells were plated in 96-well plates in triplicate at 5K cells per well and incubated at 37° C., 5% CO2 atmosphere for 24 hr prior to the addition of drug or vehicle (0.3% DMSO) to the culture medium. After 72 hr, 10 μl/well alamarBlue was added to the wells and incubated for an additional 3 hr at 37° C., 5% CO2 atmosphere. Fluorescence (560EX/590EM […]) was measured with a SpectraMax microplate reader (Molecular Devices) and the resulting data were used to calculate cell viability, normalized to vehicle control. […]
Combinations between ganetespib and irinotecan were then performed in HCT-116 cells concurrently based on the IC50 for each agent in matrix format with 54 combination pairs for each drug. The combined drugs, as well as each drug alone, were incubated with the cells for 3 days and the surviving fraction of cells relative to control was determined using the alamarBlue assay.

Turning to `CCc1c2c(nc3ccc(OC(=O)N4CCC(N5CCCCC5)CC4)cc13)-c1cc3c(c(=O)n1C2)COC(=O)[C@]3(O)CC` [irinotecan], the IC50 is about 2300 nM. As for `CC(C)c1cc(-c2nnc(O)n2-c2ccc3c(ccn3C)c2)c(O)cc1O` [ganetespib, 3-(2,4-DIHYDROXY-5- ISOPROPYL-PHENYL)-4-(1- METHYL-INDOL-5-YL)-5- HYDROXY-[1,2,4] TRIAZOLE], the IC50 was about 32 nM.
